Patent publication US6737383B1, “Herbicidal oxadiazolidines” (priority 1999, dated 2004)

Experiments:
wild oat = experiment: Test B pre/postemergence wild oat; assay type: in vivo, Avena fatua; details: for Plant response rating, Wild oats: Rate 250 g/ha
In short: (§1)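 Herbicidal effect was estimated by eye on a ten-point control scale after plants spent twelve to sixteen days in a greenhouse following soil or foliar treatment. Foliar sprays targeted plants at one to four leaves; all doses were formulated in a non-phytotoxic solvent with surfactant.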

corn = experiment: Test B pre/postemergence corn; assay type: in vivo, Zea mays
In short: as §1

giant foxtail = experiment: Test B pre/postemergence giant foxtail; assay type: in vivo, Setaria faberii
In short: as §1

blackgrass = experiment: Test B pre/postemergence blackgrass; assay type: in vivo, Alopecurus myosuroides
In short: as §1

surinam grass = experiment: Test B pre/postemergence surinam grass; assay type: in vivo, Brachiaria decumbens
In short: as §1

rape = experiment: Test B pre/postemergence rape; assay type: in vivo, Brassica napus
In short: as §1

pigweed = experiment: Test B pre/postemergence pigweed; assay type: in vivo, Amaranthus retroflexus
In short: as §1

bamyardgrass = experiment: Test B flood test barnyardgrass; assay type: in vivo, Echinochloa crus-galli
In short: (§2)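 Plants were grown to the 2-leaf stage before treatment with test chemical, then held in a greenhouse for twelve to sixteen days. Injury was visually rated against untreated controls on a 0–10 scale, where 0 is no effect and 10 is complete control.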

bedstraw = experiment: Test B pre/postemergence bedstraw; assay type: in vivo, Galium aparine
In short: as §1

smallflower flatsedge = experiment: Test B flood test smallflower flatsedge; assay type: in vivo, Cyperus difformis
In short: as §2

morningglory = experiment: Test B pre/postemergence morningglory; assay type: in vivo, Ipomoea hederacea
In short: as §1

sugar beet = experiment: Test B pre/postemergence sugar beet; assay type: in vivo, Beta vulgaris; details: for Plant response rating, Sugarbeets: Rate 250 g/ha
In short: as §1

purple nutsedge = experiment: Test B pre/postemergence purple nutsedge; assay type: in vivo, Cyperus rotundus
In short: as §1

rice = experiment: Test B flood test rice; assay type: in vivo, Oryza sativa
In short: as §2

crabgrass = experiment: Test B pre/postemergence crabgrass; assay type: in vivo, Digitaria sanguinalis
In short: as §1

wheat = experiment: Test B pre/postemergence wheat; assay type: in vivo, Triticum aestivum; details: for Plant response rating, Wheat: Rate 250 g/ha
In short: as §1

[1] = Postemergence, Rate 125 g/ha, scale of 0 to 10 where 0 is no effect and 10 is complete control
[2] = Preemergence, Rate 62 g/ha, scale 0 to 10 (0 no effect, 10 complete control)
[3] = Preemergence, Rate 125 g/ha, 0 is no effect, 10 is complete control
[4] = Preemergence, scale of 0 to 10 where 0 is no effect and 10 is complete control
[5] = Preemergence, Rate 500 g/ha, scale 0 to 10 (0 no effect, 10 complete control)
[6] = Rate 62 g/ha, Postemergence, scale of 0 to 10 where 0 is no effect and 10 is complete control
[7] = Postemergence, scale 0 to 10, 0 is no effect, 10 is complete control
[8] = Rate 500 g/ha, Postemergence, scale 0 to 10, 0 no effect, 10 complete control
[9] = Postemergence, Rate 250 g/ha, scale 0 to 10, 0 no effect, 10 complete control
[10] = Preemergence, Rate 125 g/ha, scale 0 to 10 (0 no effect, 10 complete control)
[11] = Preemergence, Rate 250 g/ha, scale of 0 to 10 where 0 is no effect and 10 is complete control
[12] = Postemergence, Rate 62 g/ha, scale 0 to 10, 0 is no effect, 10 is complete control
[13] = Rate 125 g/ha, Postemergence, scale 0 to 10, 0 no effect, 10 complete control
[14] = Rate 250 g/ha, headed Pre-emergence (flood test species), scale 0 to 10 (0 no effect, 10 complete control)
[15] = Rate 500 g/ha, headed Pre-emergence (flood test species), scale 0 to 10 (0 no effect, 10 complete control)
[16] = Rate 1000 g/ha, Pre-emergence (as headed), scale 0 to 10
[17] = Rate 2000 g/ha, Pre-emergence (as headed), scale 0 to 10

CC(C)N(C(=O)n1oc(=O)n(C(C)(C)C)c1=O)c1ccc(Cl)cc1 [Compound 118]
Wild oats plant response rating (wild oat; [1]): 0 | Wild oats plant response rating (wild oat; [2]): 0 | Wild oats plant response rating (0 to 10 scale) (wild oat; [3]): 1 | Plant response rating, Wild oats (wild oat; [4]): 6 | Wild oats plant response rating (wild oat; [5]): 6 | Wild oats plant response rating (wild oat; [6]): 0 | Plant response rating, Wild oats (wild oat; [7]): 0 | Wild oats plant response rating (wild oat; [8]): 2 | Corn plant response rating (corn; [1]): 0 | Corn plant response rating (corn; [9]): 0 | Corn plant response rating (corn; [2]): 0 | Plant response rating, Corn (corn; [10]): 0 | Plant response rating, Corn (corn; [11]): 0 | Corn plant response rating (corn; [5]): 0 | Corn plant response rating (corn; [6]): 0 | Corn plant response rating (corn; [8]): 3 | Giant foxtail plant response rating (giant foxtail; [1]): 8 | Giant foxtail plant response rating (giant foxtail; [9]): 9 | Giant foxtail plant response rating (giant foxtail; [2]): 9 | Plant response rating, Giant foxtail (giant foxtail; [10]): 10 | Plant response rating, Giant foxtail (giant foxtail; [11]): 10 | Giant foxtail plant response rating (giant foxtail; [5]): 10 | Giant foxtail plant response rating (giant foxtail; [6]): 1 | Giant foxtail plant response rating (giant foxtail; [8]): 9 | Blackgrass plant response rating (blackgrass; [1]): 4 | Blackgrass plant response rating (blackgrass; [9]): 7 | Blackgrass plant response rating (blackgrass; [2]): 0 | Plant response rating, Blackgrass (blackgrass; [10]): 2 | Plant response rating, Blackgrass (blackgrass; [11]): 3 | Blackgrass plant response rating (blackgrass; [5]): 7 | Blackgrass plant response rating (blackgrass; [6]): 0 | Blackgrass plant response rating (blackgrass; [8]): 9 | B. signalgrass plant response rating (surinam grass; [12]): 0 | B. signalgrass plant response rating (surinam grass; [9]): 2 | B. signalgrass plant response rating (surinam grass; [2]): 0 | Plant response rating, B. signalgrass (surinam grass; [10]): 2 | Plant response rating, B. signalgrass (surinam grass; [11]): 3 | B. signalgrass plant response rating (surinam grass; [5]): 10 | B. signalgrass plant response rating (surinam grass; [13]): 0 | B. signalgrass plant response rating (surinam grass; Rate 500 g/ha, Postemergence, scale of 0 to 10 where 0 is no effect and 10 is complete control): 9 | Rape plant response rating (rape; [1]): 0 | Rape plant response rating (rape; [9]): 0 | Rape plant response rating (rape; [2]): 0 | Plant response rating, Rape (rape; [10]): 0 | Plant response rating, Rape (rape; [11]): 0 | Rape plant response rating (rape; [5]): 0 | Rape plant response rating (rape; [6]): 0 | Rape plant response rating (rape; [8]): 0 | Redroot pigweed plant response rating (pigweed; [1]): 0 | Redroot pigweed plant response rating (pigweed; [2]): 0 | Plant response rating, Redroot pigweed (pigweed; [10]): 0 | Plant response rating, Redroot pigweed (pigweed; [11]): 2 | Redroot pigweed plant response rating (pigweed; [5]): 10 | Redroot pigweed plant response rating (pigweed; [6]): 0 | Plant response rating, Redroot pigweed (pigweed; Rate 250 g/ha, Postemergence, scale 0 to 10, 0 is no effect, 10 is complete control): 0 | Redroot pigweed plant response rating (pigweed; [8]): 0 | Barnyardgrass plant response rating (bamyardgrass; [14]): 0 | Plant response rating, Barnyardgrass (bamyardgrass; [15]): 1 | Barnyardgrass plant response rating (bamyardgrass; [16]): 3 | Barnyardgrass plant response rating (bamyardgrass; Rate 2000 g/ha, Pre-emergence (as headed), scale 0 to 10, 0 no effect, 10 complete control): 6 | Bedstraw plant response rating (bedstraw; [12]): 0 | Bedstraw plant response rating (bedstraw; [9]): 0 | Bedstraw plant response rating (bedstraw; [2]): 0 | Plant response rating, Bedstraw (bedstraw; [10]): 0 | Plant response rating, Bedstraw (bedstraw; [11]): 0 | Bedstraw plant response rating (bedstraw; [5]): 0 | Bedstraw plant response rating (bedstraw; [13]): 0 | S. Flatsedge plant response rating (smallflower flatsedge; Pre-emergence, Rate 1000 g/ha, scale 0 to 10 (0 no effect, 10 complete control)): 0 | S. Flatsedge plant response rating (smallflower flatsedge; [14]): 0 | Plant response rating, S. Flatsedge (smallflower flatsedge; [15]): 0 | S. Flatsedge plant response rating (smallflower flatsedge; [17]): 0 | Morningglory plant response rating (morningglory; [1]): 4 | Morningglory plant response rating (morningglory; [9]): 5 | Morningglory plant response rating (morningglory; [2]): 0 | Plant response rating, Morningglory (morningglory; [10]): 0 | Plant response rating, Morningglory (morningglory; [11]): 0 | Morningglory plant response rating (morningglory; [5]): 0 | Morningglory plant response rating (morningglory; [6]): 1 | Morningglory plant response rating (morningglory; [8]): 7 | Sugarbeets plant response rating (sugar beet; [1]): 0 | Sugarbeets plant response rating (sugar beet; [2]): 0 | Sugarbeets plant response rating (0 to 10 scale) (sugar beet; [3]): 0 | Plant response rating, Sugarbeets (sugar beet; [4]): 0 | Sugarbeets plant response rating (sugar beet; [5]): 0 | Sugarbeets plant response rating (sugar beet; [6]): 0 | Plant response rating, Sugarbeets (sugar beet; [7]): 0 | Sugarbeets plant response rating (sugar beet; [8]): 2 | Nutsedge plant response rating (purple nutsedge; [1]): 0 | Nutsedge plant response rating (purple nutsedge; [9]): 0 | Nutsedge plant response rating (purple nutsedge; [2]): 0 | Plant response rating, Nutsedge (purple nutsedge; [10]): 0 | Plant response rating, Nutsedge (purple nutsedge; [11]): 0 | Nutsedge plant response rating (purple nutsedge; [5]): 0 | Nutsedge plant response rating (purple nutsedge; [6]): 0 | Nutsedge plant response rating (purple nutsedge; [8]): 0 | Rice plant response rating (rice; [14]): 0 | Plant response rating, Rice (rice; [15]): 0 | Rice plant response rating (rice; [16]): 0 | Rice plant response rating (rice; [17]): 0 | Crabgrass plant response rating (crabgrass; [1]): 7 | Crabgrass plant response rating (crabgrass; [9]): 7 | Crabgrass plant response rating (crabgrass; [2]): 7 | Plant response rating, Crabgrass (crabgrass; [10]): 9 | Plant response rating, Crabgrass (crabgrass; [11]): 10 | Crabgrass plant response rating (crabgrass; [5]): 10 | Crabgrass plant response rating (crabgrass; [6]): 1 | Crabgrass plant response rating (crabgrass; [8]): 9 | Wheat plant response rating (wheat; [1]): 0 | Wheat plant response rating (wheat; [2]): 0 | Wheat plant response rating (0 to 10 scale) (wheat; [3]): 0 | Plant response rating, Wheat (wheat; [4]): 0 | Wheat plant response rating (wheat; [5]): 0 | Wheat plant response rating (wheat; [6]): 0 | Plant response rating, Wheat (wheat; [7]): 0 | Wheat plant response rating (wheat; [8]): 2
